Our source for the RP-LC retention time values is the METLIN SMRT retention time set (Domingo-Almenara et al. 2019).

This data set is described as follows: gradient 5% acetonitrile 3 min, to 50% in 2 min, to 85% in 15 min, held 3 min, 100 µL/min. The settings on record: column: Zorbax Extend-C18 2.1 x 50 mm; eluents: water / acetonitrile, 0.1% formic acid. The procedure, abridged:
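In both positive and negative ionization mode, a quadrupole time-of-flight mass spectrometer coupled to HPLC analyzed pure standards run in mixtures of ~100 molecules. The Zorbax Extend-C18 column (2.1 × 50 mm, 1.8 μm) was operated at 100 μL/min with water and acetonitrile, each containing 0.1% formic acid. The dead volume was 40 μL and the dwell volume 900 μL. Retention time came from adduct peaks that were computationally picked and individually inspected by hand.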
On to `O=C1NC2(CCN(C(=O)Nc3cccc(C(F)(F)F)c3)CC2)N=C1c1ccccc1`, for which the RP-LC retention time was determined as 902 s.
Under `Cc1nnc(N2CCC(C(=O)NCCN3CCOCC3)CC2)c2nn(-c3ccc(Cl)cc3)c(C)c12` stands 571 s; under `Cc1ccccc1N1CCN(C(=O)C2=CCN(Cc3cccc(F)c3)CC2)CC1`, 712 s.
With `CCOc1ccccc1NC(=O)N1CCCC(C)(C(=O)NCc2cccc(OC)c2)C1` (stereo unspecified), the RP-LC retention time worked out at 958 s.
Turning to `CS(=O)(=O)N1CCC(CC(=O)NCCC2=CCCCC2)C1` (stereo unspecified), the RP-LC retention time was determined as 743 s.
Under `COc1ccc(C(=O)CSc2nc(CC(=O)NCc3cccnc3)cs2)cc1` stands 589 s.
The compound `COc1cc(NC(=O)COc2ccc(-c3nnc4n3CCCC4)cc2)cc(OC)c1OC` returned an RP-LC retention time of 646 s.
Then `COC(=O)c1ccccc1NC(=O)N1CCCn2nc(-c3cccn3C)cc21`, with 958 s.
For `Clc1ccccc1-c1nnc(-c2ccccc2Cl)o1`, the RP-LC retention time was determined as 1080 s.
Compound `COCCN1CCC2(CC1)CN(Cc1cccc(F)c1)Cc1ccccc1O2` came in with an RP-LC retention time of 629 s.
Then `COc1cccc2cc(C(=O)Nc3cc(C)nn3-c3ccccc3)oc12`, with 832 s; and `Cc1nc(-c2cn(C(C)C)c3ncccc23)sc1C(=O)NC1CCCC1`, with 1000 s; and `Cc1ccc(CNC(=O)CCNc2c(-c3ccccc3C)nc3cnccn23)o1`, with 631 s.
Then `CN(C)S(=O)(=O)c1ccc2c(c1)N(CC(=O)Nc1ccc3c(c1)OCO3)C(=O)C1CCCCN21` (stereo unspecified), with 877 s; and `COC(=O)c1cc(S(=O)(=O)N2CCCC2C(=O)NCc2ccccc2Cl)cn1C` (stereo unspecified), with 845 s; and `COc1cccc(-c2nc(-c3ccc4c(c3)ncn4CCN3CCCC3)no2)c1OC`, with 643 s.
Under `Cc1csc(-c2cc(S(=O)(=O)NCc3ccc4c(c3)OCO4)cn2CC(=O)N2CCCC2)n1` stands 835 s.
Compound `Cc1ccc(C)c(-n2ccn(Cc3nc(-c4ccccc4C)no3)c(=O)c2=O)c1` yielded an RP-LC retention time of 953 s.
`CCOc1ccc(CNC(=O)C2CCN(Cc3cn(C)c4ccc(Cl)cc34)CC2)cc1OC`: the RP-LC retention time is 717 s.
Under `COc1ccc2c(c1)C1(CCN(C(=O)c3ccc(Cl)cc3)C1)C(=O)N2C` (stereo unspecified) stands 832 s.
`Cc1ccc(Nc2nc(C(=O)NCCc3c(C)noc3C)nc3ccccc23)cc1` showed an RP-LC retention time of 717 s.
In the case of `Cc1cccc(Sc2nccnc2N2CCC(C(=O)NCc3ccccc3)CC2)c1`, the RP-LC retention time came out at 1060 s.
Then `CCc1cccc(C)c1NC(=O)Cn1nc2n(c1=O)CCCC2`, with 717 s; and `CC1CCN(CCNC(=O)c2nc(CCS(=O)(=O)c3ccccc3)no2)CC1`, with 635 s; and `CCNC(=O)N1CC=C(C(=O)Nc2ccc(F)cc2)CC1`, with 672 s.
In turn, `CCC(=O)N1CCc2cc(C(=O)N3CCCCCC3)ccc21` came in with an RP-LC retention time of 770 s.
Under `Cc1ccc2c(Nc3cccc(C)c3C)c(-c3nc(C)no3)cnc2n1` stands 797 s; under `O=S(=O)(Nc1ccc(Cn2cncn2)cc1)c1cccc(F)c1`, 705 s; under `CCc1ccc(S(=O)(=O)N2CCc3nc(CNC(=O)C4CCC4)n(C)c3C2)cc1`, 652 s.
Then `COC(=O)c1ccc2c(=O)n(-c3cc(F)cc(F)c3)c(N3CCCCC3)nc2c1`, with 1180 s; and `Cn1ncc2c3ccccc3n(CCCC(=O)NCCc3ccco3)c2c1=O`, with 775 s; and `Cc1ccc(Sc2nccnc2N2CCCC(C(=O)NCCC(C)C)C2)cc1` (stereo unspecified), with 1140 s.
`O=C(c1ccccn1)N1CC(n2cnnc2C2CCCO2)C1` (stereo unspecified) displayed an RP-LC retention time of 582 s.
Under `Cc1cccc(NC(=O)Cn2ccc3ccc(-c4nnc(C)o4)cc32)n1` stands 700 s; under `CCCN1C(=O)COc2ccc(-c3noc(Cc4cccc(OC)c4)n3)cc21`, 1080 s; under `CCc1cc(N2CCN(C(=O)c3cc(OC)cc(OC)c3)CC2)nc2nncn12`, 601 s.
Then `Cn1nnc2cc(-c3noc(COc4ccc(Cl)cc4)n3)ccc21`, with 994 s.
`O=[N+]([O-])c1ccc(CSc2ncnc3c2ncn3[C@@H]2O[C@H](CO)[C@H](O)C2O)cc1` (stereo partly specified) displayed an RP-LC retention time of 759 s.
Compound `COc1cccc(-c2nc(C3CCN(S(=O)(=O)c4ccc(C)cc4)CC3)no2)c1` displayed an RP-LC retention time of 1150 s.
Under `Cc1noc(C)c1C1CCCN1C(=O)Cc1ccccc1Cl` (stereo unspecified) stands 806 s; under `O=C(CN(CC1CCCO1)C(=O)c1ccc(Cl)cc1)N1CCNCC1` (stereo unspecified), 605 s; under `O=C(Nc1ccccc1)C1CCCN(c2cnc3nccnc3c2)C1` (stereo unspecified), 703 s.
Regarding `CCn1c(=O)c(N2CCC(C(=O)NCCc3ccco3)CC2)nc2cccnc21`, the RP-LC retention time is 828 s.
With `CCCN(CCC)[C@@H]1CCc2ccc(O)cc2C1`, the RP-LC retention time was 671 s.
Then `COc1ccc(OC)c(S(=O)(=O)N2CCCC(C(=O)Nc3ccc(C(N)=O)cc3)C2)c1` (stereo unspecified), with 689 s; and `OCC(O)COc1cccc2ccccc12` (stereo unspecified), with 758 s.
Compound `CC(C)CCN1CCC(N2CCN(S(=O)(=O)Cc3ccc(F)cc3Cl)CC2)C1=O` (stereo unspecified) displayed an RP-LC retention time of 682 s.
Then `CC(C)c1ccc(OCC(=O)Nc2cc3c(cc2N2CCOCC2)n(C)c(=O)c(=O)n3C)cc1`, with 921 s.
Under `Cc1nc(-c2ccccc2)cc2nn(CC(=O)NC3CCCCC3)c(=O)n12` stands 880 s; under `Cc1[nH]c2ccccc2c1CCNCc1ccc(/C=C/C(=O)NO)cc1`, 659 s.
Under `COc1ccc(OC)c(NC(=O)Cn2nc(N3CCC(C)CC3)c3ccccc3c2=O)c1` stands 1180 s; under `Cc1nnc(N2CCCC(C(=O)NCc3cccc(Cl)c3)C2)c2nn(-c3ccccc3)c(C)c12` (stereo unspecified), 674 s; under `O=C(Nc1ccccc1F)C1CC(=O)N(CCc2c[nH]c3ccc(F)cc23)C1` (stereo unspecified), 790 s.
Take `CCOc1ccc(CNC(=O)Cc2csc3nc(-c4ccc(C)c(C)c4)cn23)cc1OC`: the RP-LC retention time turned out to be 810 s.
Under `COc1cccc(C(=O)N2CCN(S(=O)(=O)c3cc4c5c(c3)CCC(=O)N5CCC4)CC2)c1` stands 770 s.
`OC[C@H]1O[C@@H](n2cnc3c(NC4CCCCC4)ncnc32)C(O)[C@H]1O` (stereo partly specified) returned an RP-LC retention time of 583 s.
Take `CC(C)NC(=O)c1cccc2c1CCN2C(=O)C1CC1`: the RP-LC retention time was 700 s.
`COc1ccc(F)cc1S(=O)(=O)N1CCC(F)(c2nc(CC(C)C)no2)CC1`: the RP-LC retention time turned out to be 1120 s.
Under `CN1C(=O)C2CCCCN2c2ccc(C(=O)NCCc3ccc(Cl)cc3)cc21` (stereo unspecified) stands 971 s; under `CCOCCCNC(=O)C1CCN(c2cc(Sc3cc(C)ccc3C)ncn2)CC1`, 775 s; under `COc1ccc(NC(=O)c2cn3c(n2)CCCC3)cc1OC`, 570 s.
Under `Cc1ccccc1CN1CC(=O)NCC12CCCC2` stands 573 s; under `Cc1ccc(-c2noc(C3CCCN3S(=O)(=O)c3ccc(Br)s3)n2)cc1` (stereo unspecified), 1220 s; under `COc1ccccc1NC(=O)Cn1c(C(F)(F)F)nc2cc3c(cc21)OCCO3`, 886 s.
Then `O=C(C1CCN(c2cc(N3CCCCC3)ncn2)CC1)N1CCCCC1`, with 652 s.
`Cn1nccc1C(=O)Nc1c(-c2ccccc2)nc2sc(N3CCCCC3)nn12` gave an RP-LC retention time of 678 s.
Under `Cn1nc(-c2nnc(-c3ccccc3Cl)o2)c2c1CCN(C(=O)Nc1ccccc1)C2` stands 849 s; under `CS(=O)(=O)N1CCC(Cc2ccc(C(=O)O)cc2)CC1`, 728 s.
Compound `CCn1nccc1C(=O)Nc1cc(-c2cc3cc(OC)ccc3n2CC)[nH]n1` came in with an RP-LC retention time of 846 s.
Under `O=C(Cc1nc(-c2ccccc2)n[nH]1)NC1CCCCC1` stands 714 s; under `CCN(CC)C(=O)c1ccc2c(c1)N(CC(=O)NCc1ccccn1)C(=O)CO2`, 594 s.
Then `Cc1noc([C@@H]2CN(C(=O)c3occc3C)C[C@H]2CO)n1`, with 642 s; and `O=C(O)CCC1CCN(S(=O)(=O)c2ccccc2F)CC1`, with 751 s; and `Cc1oc2ccn(Cc3ccc(F)cc3)c(=O)c2c1C(=O)NCC1CC1`, with 988 s.
Under `Cc1ccn2c(NC(=O)c3ccccc3)c(-c3ccccc3)nc2c1` stands 646 s; under `C=CCNC(=O)c1cnn(-c2cc(-c3nc(C(C)(C)C)no3)ccn2)c1C`, 1020 s; under `CC(NC(=O)c1ccc(NC(=O)C2CC2)cc1N1CCCCCC1)c1ccccn1` (stereo unspecified), 633 s.
The compound `O=C(NCCc1cccs1)C1CCc2nc(N3CCCC3)ncc2C1` (stereo unspecified) gave an RP-LC retention time of 857 s.
Under `Cc1ccccc1Nc1c(-c2cccc(N(C)C)c2)nc2ccc(Br)cn12` stands 847 s; under `COc1ncccc1CNC(=O)COc1ccccc1`, 677 s.
`O=C(Nc1ccc(C(F)(F)F)cc1)c1cn(CC(O)c2ccccc2)nn1` (stereo unspecified) gave an RP-LC retention time of 581 s.
